PMC12897533, “Discovery of bis-thiourea derivatives as potent tyrosinase inhibitors: combined experimental and computational study” (Journal of Enzyme Inhibition and Medicinal Chemistry, 2025)
Like-named read-outs stand apart in the source and are kept apart here.

How the values were obtained:
[1] = copper-chelating activity assay (pyrocatechol violet); details: 5 mM
Experimental: The copper-chelating activity of compound 4 was assessed using previously reported protocol[44] with minor modifications. […] After that, the absorbance of each well was measured at 620 nm. The copper-chelating activity was calculated using the formula: Copper-chelating activity (%) = [(Acon – Asam)/Acon] × 100, where Acon and Asam are the absorbance of the control and test sample, respectively.

mushroom tyrosinase = mushroom tyrosinase activity assay (L-DOPA substrate); format: biochemical; details: mean ± SEM
Experimental: The procedure for the mushroom tyrosinase activity assay was conducted in accordance with the methodology described in a previous report. […] In a 96-well plate, 40 μL of mushroom tyrosinase (5 U/μL, Sigma Aldrich, St. Louis, MO, USA) was added to each well, followed by 50 μL of the test compound at various concentrations. After that, 10 μL of 50 mM L-DOPA (purity ≥98%, Sigma-Aldrich, St. Louis, MO, USA) were added and incubated in darkness at 37 °C for 15 min. Finally, the absorbance was measured at 450 nm. The experiment was conducted in triplicate. IC50 values were determined using GraphPad Prism 10.2.2 software.

cytotoxicity MTT assay = format: cell-based, murine; details: mouse, B16F10 melanoma cells, read-out: cell viability
Experimental: Cell viability was determined using the MTT assay (3-(4,5-dimethylthiazol-2-yl)-2,5-diphenyltetrazolium bromide). B16F10 (murine melanoma cell line) was purchased from American Type Culture Collection (ATCC, Manassas, VA, USA). B16F10 cells were seeded into 96-well plates at a density of 1500 cells per well. After overnight incubation, the cells were treated with different concentrations of the test compound for 48 h. Following this, MTT reagent was added to each well and incubated for 3 h. The culture medium was then removed, and 100 μL of DMSO was used to dissolve the formazan crystals. Absorbance was measured at 540 nm to evaluate cell viability.

[2] = tested on: B16F10 murine melanoma cells; assay: melanin assay in α-MSH-stimulated cells; format: cell-based
Experimental: Melanin production was assessed according to the methodology outlined in a previous study. B16F10 cells were cultured in 6-well plates at a density of 100,000 cells per well. After overnight incubation, the cells were treated with different concentrations of the test compound for 48 h. Note that 1 μM of α-melanocyte-stimulating hormone (α-MSH) (Sigma Aldrich, St. Louis, MO, USA) was used to induce melanin synthesis. Following treatment, the cells were washed twice with PBS, detached using trypsin/EDTA, and centrifuged at 3,000×g for 5 min. The resulting cell pellets, containing approximately 700,000 cells, were solubilised in 2 M NaOH and heated at 100 °C for 30 min. Melanin content was quantified by measuring absorbance at 405 nm.

tyrosinase = details: cited from earlier work
[3] = cited from earlier work

SMILES: O=C(O)CN(CCN(CC(=O)O)CC(=O)O)CC(=O)O [EDTA, ethylenediaminetetraacetic acid]
- Copper-chelating activity [1]: 95%

SMILES: S=C(NCc1ccc(CNC(=S)Nc2ccc(Cl)cc2)cc1)Nc1ccc(Cl)cc1 [Compound 4]
- IC50 (mushroom tyrosinase): 61.6 ± 7.82 µM
- Copper-chelating activity [1]: 64%
- viability at 48 h, 1 µM (cytotoxicity MTT assay; 1 μM): ~90%
- viability at 48 h, 3 µM (cytotoxicity MTT assay; 3 μM): ~90%
- viability at 48 h, 10 µM (cytotoxicity MTT assay; 10 μM): ~75%
- viability at 48 h, 30 µM (cytotoxicity MTT assay; 30 μM): ~50%
- viability at 48 h, 100 µM (cytotoxicity MTT assay; 100 μM): < 40%
- melanin production ([2]; 10 and 30 μM, 48 h, α-MSH (1 μM)-treated B16F10, vs α-MSH group): significantly inhibited melanin production
- anti-melanogenic activity compared to KA ([2]; α-MSH-stimulated B16F10, approximately): 30–100 times

SMILES: N=C(N)NN=C1C=CC(=NNC(N)=S)C=C1 [ambazone]
- IC50 (tyrosinase): 15 µM

SMILES: O=c1cc(CO)occ1O [KA, kojic acid]
- Copper-chelating activity [1]: 75%
- melanin content ([2]; 1000 μM, 48 h, α-MSH-stimulated B16F10, vs α-MSH group): reduced melanin content significantly

SMILES: S=C1NCCCc2occc21 [Compound T4FAT, 5,6,7,8-tetrahydro-4H-furo[3,2-c]azepine-4-thione]
- copper ions chelated ([3]; 200 mM ref 63): more than 80%

SMILES: Sc1nc2ccccc2s1 [Compound 2-TBT, 2-thiobenzothiazole]
- Copper-chelating activity [3]: 48% to 69

SMILES: C[C@@H]1[C@H](O)[C@@H](C)/C=C/C=C/C=C/C=C/C=C/C=C/C=C/[C@H](O[C@@H]2O[C@H](C)[C@@H](O)[C@H](N)[C@@H]2O)C[C@@H]2O[C@](O)(C[C@@H](O)C[C@@H](O)[C@H](O)CC[C@@H](O)C[C@@H](O)CC(=O)O[C@H]1C)C[C@H](O)[C@H]2C(=O)O [amphotericin B]
- IC50 (tyrosinase): 263 ± 11.8 µM

SMILES: CC1(C)C=Cc2c(O)ccc(C3=Cc4ccc(O)cc4OC3)c2O1 [glabrene]
- IC50 (tyrosinase): 7600 µM

SMILES: CC(=O)Nc1ccc(/C=N/NC(N)=S)cc1 [thioacetazone]
- IC50 (tyrosinase): 14 µM
